MIC data for seven compounds are collected here from ChEMBL document CHEMBL1208720, “N-Benzylsalicylthioamides as novel compounds with promising antimycotic activity” (2010).

Format in all cases: functional
Test [1] relates to Trichosporon asahii. The experiment in a line: Antifungal activity against Trichosporon asahii 1188 after 48 hrs by broth microdilution assay. The following applies: Trichosporon asahii, 1188, 48 h. In general terms: In broth dilution the organism is exposed to a series of concentrations in liquid medium.
In test [2] the test system is Nakaseomyces glabratus. The experiment in a line: Antifungal activity against Candida glabrata 20/I after 24 hrs by broth microdilution assay. The following applies: Nakaseomyces glabratus, 20/I, 24 h.
Test [3] concerns Trichosporon asahii. The experiment in a line: Antifungal activity against Trichosporon asahii 1188 after 24 hrs by broth microdilution assay. The following applies: Trichosporon asahii, 1188, 24 h.
The subject of test [4] is Trichophyton mentagrophytes. In words: Antifungal activity against Trichophyton mentagrophytes 445 after 120 hrs by broth microdilution assay. The note with it: Trichophyton mentagrophytes, 445, 120 h.
In test [5] the test system is Nakaseomyces glabratus. In words: Antifungal activity against Candida glabrata 20/I after 48 hrs by broth microdilution assay. The note with it: Nakaseomyces glabratus, 20/I, 48 h.
For test [6], the system named is Candida tropicalis. The experiment in a line: Antifungal activity against Candida tropicalis 159 after 48 hrs by broth microdilution assay. The following applies: Candida tropicalis, 159, 48 h.
For test [7], the system named is Candida tropicalis. The experiment in a line: Antifungal activity against Candida tropicalis 159 after 24 hrs by broth microdilution assay. The following applies: Candida tropicalis, 159, 24 h.
For test [8], the system named is Pichia kudriavzevii. The experiment in a line: Antifungal activity against Candida krusei E28 after 24 hrs by broth microdilution assay. The note with it: Pichia kudriavzevii, E28, 24 h.
For test [9], the system named is Candida albicans. The experiment in a line: Antifungal activity against Candida albicans ATCC 44859 after 24 hrs by broth microdilution assay. The following applies: Candida albicans, ATCC 44859, 24 h.
The subject of test [10] is Candida albicans. In words: Antifungal activity against Candida albicans ATCC 44859 after 48 hrs by broth microdilution assay. The following applies: Candida albicans, ATCC 44859, 48 h.
Test [11] relates to Trichophyton mentagrophytes. The experiment in a line: Antifungal activity against Trichophyton mentagrophytes 445 after 72 hrs by broth microdilution assay. The note with it: Trichophyton mentagrophytes, 445, 72 h.
Test [12] relates to Lichtheimia corymbifera. In words: Antifungal activity against Absidia corymbifera 272 after 48 hrs by broth microdilution assay. The following applies: Lichtheimia corymbifera, 272, 48 h.
Test [13] deals with Aspergillus fumigatus. The experiment in a line: Antifungal activity against Aspergillus fumigatus 231 after 24 hrs by broth microdilution assay. The note with it: Aspergillus fumigatus, 231, 24 h.
Test [14] concerns Aspergillus fumigatus. In words: Antifungal activity against Aspergillus fumigatus 231 after 48 hrs by broth microdilution assay. The following applies: Aspergillus fumigatus, 231, 48 h.
Test [15] has as its system Lichtheimia corymbifera. In words: Antifungal activity against Absidia corymbifera 272 after 24 hrs by broth microdilution assay. The note with it: Lichtheimia corymbifera, 272, 24 h.
The test system of test [16] is Pichia kudriavzevii. The experiment in a line: Antifungal activity against Candida krusei E28 after 48 hrs by broth microdilution assay. The following applies: Pichia kudriavzevii, E28, 48 h.

For orientation: MIC means the least concentration at which growth counts as inhibited. Lower therefore signals inhibition by little substance.

≈ marks a conversion by molar mass, not a printed value.

With `CC(C)(C)c1ccc(CNC(=S)c2ccccc2O)cc1`, the MIC against Trichosporon asahii [1] was 250 µM (≈ 74.9 µg/mL); in the test on Nakaseomyces glabratus [2] it was greater than 500 µM; with Trichosporon asahii [3], 250 µM (≈ 74.9 µg/mL); in test [4], 15.6 µM (≈ 4.68 µg/mL); against Nakaseomyces glabratus [5], greater than 500 µM; against Candida tropicalis [6], greater than 500 µM. The MIC is greater than 500 µM in the test with Candida tropicalis [7]; greater than 500 µM against Pichia kudriavzevii [8]; greater than 500 µM against Candida albicans [9]; greater than 500 µM in the test with Candida albicans [10]; 15.6 µM (≈ 4.68 µg/mL) in test [11]; 62.5 µM (≈ 18.7 µg/mL) with Lichtheimia corymbifera [12]. For the same compound, the minimal inhibitory concentration (MIC) in the test with Aspergillus fumigatus [13] was 250 µM (≈ 74.9 µg/mL); against Aspergillus fumigatus [14] it was greater than 500 µM; with Lichtheimia corymbifera [15], 15.6 µM (≈ 4.68 µg/mL); in the test with Pichia kudriavzevii [16], greater than 500 µM.

On to `Oc1ccccc1C(=S)NCc1ccc(F)cc1`, for which the MIC against Trichosporon asahii [1] was 62.5 µM (≈ 16.3 µg/mL); in the test on Nakaseomyces glabratus [2] it was 125 µM (≈ 32.7 µg/mL); against Trichosporon asahii [3], 31.2 µM (≈ 8.17 µg/mL); in [4] it was 31.2 µM (≈ 8.17 µg/mL); against Nakaseomyces glabratus [5], 250 µM (≈ 65.3 µg/mL); in the test with Candida tropicalis [6] it was 250 µM (≈ 65.3 µg/mL). The MIC was 125 µM (≈ 32.7 µg/mL) in the test on Candida tropicalis [7]; 62.5 µM (≈ 16.3 µg/mL) in the test on Pichia kudriavzevii [8]; 62.5 µM (≈ 16.3 µg/mL) with Candida albicans [9]; 125 µM (≈ 32.7 µg/mL) with Candida albicans [10]; 7.81 µM (≈ 2.04 µg/mL) in test [11]; 31.2 µM (≈ 8.17 µg/mL) against Lichtheimia corymbifera [12]. Further, the MIC against Aspergillus fumigatus [13] came out at 62.5 µM (≈ 16.3 µg/mL); against Aspergillus fumigatus [14], 62.5 µM (≈ 16.3 µg/mL); with Lichtheimia corymbifera [15], 15.6 µM (≈ 4.08 µg/mL); against Pichia kudriavzevii [16] it was 125 µM (≈ 32.7 µg/mL).

For `Cc1ccc(CNC(=S)c2ccccc2O)cc1`, the MIC in the test on Trichosporon asahii [1] stood at 62.5 µM (≈ 16.1 µg/mL); with Nakaseomyces glabratus [2] it was 125 µM (≈ 32.2 µg/mL); against Trichosporon asahii [3], 31.2 µM (≈ 8.04 µg/mL); in test [4], 15.6 µM (≈ 4.02 µg/mL); in the test with Nakaseomyces glabratus [5], 125 µM (≈ 32.2 µg/mL); in the test on Candida tropicalis [6], 125 µM (≈ 32.2 µg/mL). Further, the MIC against Candida tropicalis [7] worked out at 125 µM (≈ 32.2 µg/mL); with Pichia kudriavzevii [8] it was 62.5 µM (≈ 16.1 µg/mL); against Candida albicans [9] it was 62.5 µM (≈ 16.1 µg/mL); against Candida albicans [10], 125 µM (≈ 32.2 µg/mL); in [11] it was 31.2 µM (≈ 8.04 µg/mL); against Lichtheimia corymbifera [12], 31.2 µM (≈ 8.04 µg/mL). Besides, the MIC was found to be 125 µM (≈ 32.2 µg/mL) against Aspergillus fumigatus [13], 250 µM (≈ 64.3 µg/mL) in the test on Aspergillus fumigatus [14], 15.6 µM (≈ 4.02 µg/mL) against Lichtheimia corymbifera [15] and 125 µM (≈ 32.2 µg/mL) in the test on Pichia kudriavzevii [16].

For `OC(Cn1cncn1)(Cn1cncn1)c1ccc(F)cc1F` [FLUCONAZOLE], the MIC in the test with Trichosporon asahii [1] is 9 µM (≈ 2.76 µg/mL); in the test with Nakaseomyces glabratus [2], 22 µM (≈ 6.74 µg/mL); with Trichosporon asahii [3], 4 µM (≈ 1.23 µg/mL); in test [4], 26 µM (≈ 7.96 µg/mL); in the test with Nakaseomyces glabratus [5] it was greater than 50 µM; in the test on Candida tropicalis [6], 5 µM (≈ 1.53 µg/mL). The MIC was 3 µM (≈ 0.919 µg/mL) in the test with Candida tropicalis [7]; greater than 50 µM against Pichia kudriavzevii [8]; 1 µM (≈ 0.306 µg/mL) in the test with Candida albicans [9]; 2 µM (≈ 0.613 µg/mL) in the test with Candida albicans [10]; 17 µM (≈ 5.21 µg/mL) in test [11]; greater than 50 µM with Lichtheimia corymbifera [12]. The MIC in the test on Aspergillus fumigatus [13], in the test on Aspergillus fumigatus [14], against Lichtheimia corymbifera [15] and in the test on Pichia kudriavzevii [16] was greater than 50 µM throughout.

Turning to `Oc1ccc(Br)cc1C(=S)NCc1ccc(Br)cc1`, the MIC came out at 7.81 µM (≈ 3.13 µg/mL) in the test with Trichosporon asahii [1]; 31.2 µM (≈ 12.5 µg/mL) against Nakaseomyces glabratus [2]; 3.9 µM (≈ 1.56 µg/mL) with Trichosporon asahii [3]; 31.2 µM (≈ 12.5 µg/mL) in test [4]; 125 µM (≈ 50.1 µg/mL) in the test with Nakaseomyces glabratus [5]; 31.2 µM (≈ 12.5 µg/mL) against Candida tropicalis [6]. For the same compound, the MIC is 31.2 µM (≈ 12.5 µg/mL) in the test with Candida tropicalis [7]; 3.9 µM (≈ 1.56 µg/mL) in the test with Pichia kudriavzevii [8]; 15.6 µM (≈ 6.27 µg/mL) with Candida albicans [9]; 31.2 µM (≈ 12.5 µg/mL) in the test on Candida albicans [10]; 15.6 µM (≈ 6.27 µg/mL) in test [11]; 3.9 µM (≈ 1.56 µg/mL) against Lichtheimia corymbifera [12]. Also, the MIC stood at 15.6 µM (≈ 6.27 µg/mL) in the test on Aspergillus fumigatus [13], 15.6 µM (≈ 6.27 µg/mL) with Aspergillus fumigatus [14], 3.9 µM (≈ 1.56 µg/mL) in the test on Lichtheimia corymbifera [15] and 15.6 µM (≈ 6.27 µg/mL) with Pichia kudriavzevii [16].

`Oc1ccc(Cl)cc1C(=S)NCc1ccccc1`: the MIC against Trichosporon asahii [1] was 31.2 µM (≈ 8.68 µg/mL); against Nakaseomyces glabratus [2] it was 15.6 µM (≈ 4.34 µg/mL); in the test with Trichosporon asahii [3], 31.2 µM (≈ 8.68 µg/mL); in [4], 3.9 µM (≈ 1.08 µg/mL); with Nakaseomyces glabratus [5], 62.5 µM (≈ 17.4 µg/mL); against Candida tropicalis [6] it was 125 µM (≈ 34.7 µg/mL). Further, the MIC amounted to 62.5 µM (≈ 17.4 µg/mL) against Candida tropicalis [7]; 15.6 µM (≈ 4.34 µg/mL) with Pichia kudriavzevii [8]; 62.5 µM (≈ 17.4 µg/mL) in the test with Candida albicans [9]; 125 µM (≈ 34.7 µg/mL) with Candida albicans [10]; 1.95 µM (≈ 0.542 µg/mL) in [11]; 15.6 µM (≈ 4.34 µg/mL) against Lichtheimia corymbifera [12]. The MIC against Aspergillus fumigatus [13] was found to be 31.2 µM (≈ 8.68 µg/mL); against Aspergillus fumigatus [14] it was 31.2 µM (≈ 8.68 µg/mL); against Lichtheimia corymbifera [15], 15.6 µM (≈ 4.34 µg/mL); with Pichia kudriavzevii [16] it was 31.2 µM (≈ 8.68 µg/mL).

In the case of `Cc1ccc(C(=S)NCc2ccccc2)c(O)c1`, the MIC in the test with Trichosporon asahii [1] was 62.5 µM (≈ 16.1 µg/mL); in the test with Nakaseomyces glabratus [2] it was 125 µM (≈ 32.2 µg/mL); in the test with Trichosporon asahii [3], 62.5 µM (≈ 16.1 µg/mL); in test [4], 31.2 µM (≈ 8.04 µg/mL); against Nakaseomyces glabratus [5] it was 250 µM (≈ 64.3 µg/mL); with Candida tropicalis [6] it was 250 µM (≈ 64.3 µg/mL). Besides, the MIC against Candida tropicalis [7] amounted to 125 µM (≈ 32.2 µg/mL); in the test with Pichia kudriavzevii [8], 62.5 µM (≈ 16.1 µg/mL); in the test with Candida albicans [9], 62.5 µM (≈ 16.1 µg/mL); against Candida albicans [10], 125 µM (≈ 32.2 µg/mL); in test [11] it was 31.2 µM (≈ 8.04 µg/mL); in the test with Lichtheimia corymbifera [12] it was 31.2 µM (≈ 8.04 µg/mL). Also, the MIC turned out to be 62.5 µM (≈ 16.1 µg/mL) with Aspergillus fumigatus [13], 125 µM (≈ 32.2 µg/mL) against Aspergillus fumigatus [14], 7.81 µM (≈ 2.01 µg/mL) with Lichtheimia corymbifera [15] and 125 µM (≈ 32.2 µg/mL) against Pichia kudriavzevii [16].
